Read-outs that look alike come from different tables or passages of the source.
Experiments:
[1] = target: human TLR9 (Homo sapiens (Human), UniProt Q9NR96); assay: TLR9 inhibition reporter assay (HEK-Blue SEAP);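 further: SEAP driven by an IFN-β minimal promoter with NF-κB and AP-1 sites, read after 22 h, compounds dosed 0.05 nM–50 µM, inhibition scaled between agonist plus DMSO and reference-inhibitor wells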
[2] = target: human TLR8 (Homo sapiens (Human), UniProt Q9NR97); assay: TLR8 inhibition reporter assay (HEK-Blue SEAP);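 further: SEAP driven by IFN-β minimal promoter carrying NF-κB and AP-1 sites, compounds dosed 0.05 nM to 50 µM for 22 h, inhibition scaled between agonist-plus-DMSO and reference-inhibitor wells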
Sequence of human TLR8 (Q9NR97 27-1041): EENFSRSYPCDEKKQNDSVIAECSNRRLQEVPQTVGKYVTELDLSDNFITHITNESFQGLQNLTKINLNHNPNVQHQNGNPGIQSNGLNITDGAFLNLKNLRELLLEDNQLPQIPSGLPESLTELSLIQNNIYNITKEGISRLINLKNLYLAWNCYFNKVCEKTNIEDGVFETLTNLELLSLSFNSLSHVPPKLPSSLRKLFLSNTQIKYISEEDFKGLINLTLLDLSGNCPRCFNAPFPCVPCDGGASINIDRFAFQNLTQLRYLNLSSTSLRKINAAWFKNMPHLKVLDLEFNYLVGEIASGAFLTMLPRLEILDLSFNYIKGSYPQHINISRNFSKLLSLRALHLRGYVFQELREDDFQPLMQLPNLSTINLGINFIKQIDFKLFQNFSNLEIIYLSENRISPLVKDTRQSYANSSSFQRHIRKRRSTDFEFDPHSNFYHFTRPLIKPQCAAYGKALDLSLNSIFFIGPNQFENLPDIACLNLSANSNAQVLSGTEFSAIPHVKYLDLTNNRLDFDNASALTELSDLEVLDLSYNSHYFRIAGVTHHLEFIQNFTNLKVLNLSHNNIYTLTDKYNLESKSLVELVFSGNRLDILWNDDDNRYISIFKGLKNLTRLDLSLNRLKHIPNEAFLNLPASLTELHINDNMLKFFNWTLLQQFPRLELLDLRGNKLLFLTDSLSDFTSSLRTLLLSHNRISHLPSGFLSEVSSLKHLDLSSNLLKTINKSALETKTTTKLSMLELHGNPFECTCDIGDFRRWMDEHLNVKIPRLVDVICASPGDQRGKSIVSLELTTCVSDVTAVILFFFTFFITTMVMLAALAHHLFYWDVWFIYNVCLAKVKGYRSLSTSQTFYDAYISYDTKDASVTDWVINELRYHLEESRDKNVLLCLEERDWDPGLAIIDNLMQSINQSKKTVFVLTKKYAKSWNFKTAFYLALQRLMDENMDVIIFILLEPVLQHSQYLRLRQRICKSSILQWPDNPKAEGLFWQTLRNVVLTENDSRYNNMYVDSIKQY

[3] = target: human TLR7 (Homo sapiens (Human), UniProt Q9NYK1); assay: TLR7 inhibition reporter assay (HEK-Blue SEAP); assay type: cell-based
Sequence of human TLR7 (Q9NYK1 27-1049): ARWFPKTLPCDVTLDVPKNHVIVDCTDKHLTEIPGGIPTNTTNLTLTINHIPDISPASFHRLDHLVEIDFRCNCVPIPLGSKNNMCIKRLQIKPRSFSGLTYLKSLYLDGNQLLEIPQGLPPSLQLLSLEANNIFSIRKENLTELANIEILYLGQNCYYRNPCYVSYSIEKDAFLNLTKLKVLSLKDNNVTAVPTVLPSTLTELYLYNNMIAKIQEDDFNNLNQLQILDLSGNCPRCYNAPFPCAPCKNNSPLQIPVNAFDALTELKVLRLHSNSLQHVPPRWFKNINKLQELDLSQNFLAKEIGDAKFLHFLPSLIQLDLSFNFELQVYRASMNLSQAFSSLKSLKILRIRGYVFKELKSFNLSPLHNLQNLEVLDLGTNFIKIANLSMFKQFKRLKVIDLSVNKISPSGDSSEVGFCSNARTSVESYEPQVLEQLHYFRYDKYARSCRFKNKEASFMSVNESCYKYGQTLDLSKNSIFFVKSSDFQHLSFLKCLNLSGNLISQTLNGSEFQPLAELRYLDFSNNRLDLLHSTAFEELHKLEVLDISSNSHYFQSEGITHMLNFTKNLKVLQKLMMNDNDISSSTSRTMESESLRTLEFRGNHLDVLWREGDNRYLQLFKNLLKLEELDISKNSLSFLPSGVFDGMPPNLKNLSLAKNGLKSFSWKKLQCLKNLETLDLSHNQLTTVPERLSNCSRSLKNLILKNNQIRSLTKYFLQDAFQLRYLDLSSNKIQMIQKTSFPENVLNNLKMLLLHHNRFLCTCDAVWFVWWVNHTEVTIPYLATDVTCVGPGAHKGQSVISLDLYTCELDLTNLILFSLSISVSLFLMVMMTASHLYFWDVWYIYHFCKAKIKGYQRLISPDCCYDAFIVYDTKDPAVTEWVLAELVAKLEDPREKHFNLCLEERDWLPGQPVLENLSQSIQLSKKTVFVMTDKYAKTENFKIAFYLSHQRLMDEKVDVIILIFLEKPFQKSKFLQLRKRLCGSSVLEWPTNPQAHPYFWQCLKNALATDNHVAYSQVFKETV

[4] = read-out: TLR9 IC50, HEK-Blue human TLR9 cells, ODN2006 5 nM
[5] = read-out: TLR8 IC50, HEK-Blue human TLR8 cells, R848 15.9 μM
[6] = HEK-Blue human TLR7 cells, gardiquimod 7.5 μM
[7] = read-out: TLR9 IC50, HEK-Blue cells overexpressing human TLR9, ODN2006 5 nM stimulation, SEAP reporter
[8] = read-out: TLR8 IC50, HEK-Blue cells overexpressing human TLR8, R848 15.9 μM stimulation, SEAP reporter
[9] = HEK-Blue cells overexpressing human TLR7, gardiquimod 7.5 μM stimulation, SEAP reporter
[10] = read-out: TLR9 IC50, HEK-Blue cells overexpressing human TLR9, SEAP reporter, ODN2006 5 nM
[11] = read-out: TLR8 IC50, HEK-Blue cells overexpressing human TLR8, SEAP reporter, R848 15.9 μM
[12] = HEK-Blue cells overexpressing human TLR7, SEAP reporter, gardiquimod 7.5 μM

Sequence of human TLR9 (Q9NR96 26-1032): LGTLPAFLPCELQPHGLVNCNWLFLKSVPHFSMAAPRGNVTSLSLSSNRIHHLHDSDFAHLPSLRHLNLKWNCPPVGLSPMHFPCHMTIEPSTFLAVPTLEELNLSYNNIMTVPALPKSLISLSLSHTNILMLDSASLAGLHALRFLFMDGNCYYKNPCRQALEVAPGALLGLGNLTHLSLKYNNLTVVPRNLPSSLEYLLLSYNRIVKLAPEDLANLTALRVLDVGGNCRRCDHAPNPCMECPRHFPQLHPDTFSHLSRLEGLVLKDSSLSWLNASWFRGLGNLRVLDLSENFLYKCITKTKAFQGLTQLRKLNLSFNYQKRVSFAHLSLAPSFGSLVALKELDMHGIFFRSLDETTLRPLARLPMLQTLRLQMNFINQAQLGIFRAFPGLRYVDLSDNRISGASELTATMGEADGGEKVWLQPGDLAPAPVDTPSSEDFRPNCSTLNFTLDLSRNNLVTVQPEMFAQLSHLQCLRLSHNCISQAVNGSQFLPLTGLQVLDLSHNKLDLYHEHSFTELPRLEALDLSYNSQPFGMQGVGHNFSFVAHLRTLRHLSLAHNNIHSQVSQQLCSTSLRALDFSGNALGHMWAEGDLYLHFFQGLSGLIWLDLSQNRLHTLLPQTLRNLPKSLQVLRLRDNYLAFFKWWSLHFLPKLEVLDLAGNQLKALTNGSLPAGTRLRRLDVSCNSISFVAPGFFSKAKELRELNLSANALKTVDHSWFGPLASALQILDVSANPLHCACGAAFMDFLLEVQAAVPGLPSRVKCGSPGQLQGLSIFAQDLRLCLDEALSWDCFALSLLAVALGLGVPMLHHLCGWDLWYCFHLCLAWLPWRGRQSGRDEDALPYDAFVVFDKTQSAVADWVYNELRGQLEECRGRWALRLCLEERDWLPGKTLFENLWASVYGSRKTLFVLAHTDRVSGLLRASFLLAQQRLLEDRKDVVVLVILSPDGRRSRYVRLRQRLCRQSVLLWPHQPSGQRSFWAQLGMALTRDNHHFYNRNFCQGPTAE

Row | Structure (SMILES) | IC50 [1, 4] [nM] | IC50 [2, 5] [nM] | IC50 [3, 6] [nM] | IC50 [1, 7] [nM] | IC50 [2, 8] [nM] | IC50 [3, 9] [nM] | IC50 [1, 10] [nM] | IC50 [2, 11] [nM] | IC50 [3, 12] [nM] | further results
1 | Cc1c(-c2[nH]c3ccc(C4CCC(N5CC(C(=O)N(C)C)C5)CC4)nc3c2C(C)C)cn2ncnc2c1C (stereo not drawn) [Example 1047] | 4490 | 3.5 | 1.3 |  |  |  |  |  |  | 
2 | CC(C)c1c(-c2cn(CC#N)c3ncccc23)[nH]c2ccc(C3CCC(NCC(=O)N(C)C)CC3)nc12 (stereo not drawn) [Example 276] |  |  |  | 309 | 9 | 8.9 |  |  |  | 
3 | COc1cc(-c2[nH]c3ccc(C4CCNCC4)nc3c2C(C)C)cn2ncnc12 [Example 520] |  |  |  |  |  |  | 285 | 7 | 0.8 | 
4 | Cc1c(-c2[nH]c3ccc(C4CCC(N5CC6(CCS6(=O)=O)C5)CC4)nc3c2C(C)C)cn2ncnc2c1C (stereo not drawn) [Example 1076] | 10600 | 1.8 | 1.6 |  |  |  |  |  |  | 
5 | Cc1c(-c2[nH]c3ccc(C4CCC(N(CCC#N)C5CC5)CC4)nc3c2C(C)C)cn2ncnc2c1C (stereo not drawn) [Example 433] |  |  |  |  |  |  | > 50000 | 60 | 42 | 
6 | Cc1cc(-c2[nH]c3ccc(N4CCNCC4)nc3c2C(C)C)cn2ncnc12 [Example 88] |  |  |  | 3600 | 91 | 68 |  |  |  | 
7 | Cc1c(-c2[nH]c3ccc(N4C[C@@H](C)N(C(=O)CCN5CC6(COC6)C5)C[C@@H]4C)nc3c2C(C)C)cn2ncnc2c1C [Example 908] | 6460 | 0.26 | 0.89 |  |  |  |  |  |  | 
8 | Cc1c(-c2[nH]c3ccc(N4CC(NCC(=O)N(C)C)C4)nc3c2C(C)C)cn2ncnc2c1C [Example 26] |  |  |  | > 50000 | 2130 | 1770 |  |  |  | 
9 | Cc1c(-c2[nH]c3ccc(N4CC5(CN(CC(C)(C)C)C5)C4)nc3c2C(C)C)cn2ncnc2c1C [Example 1010] | 2430 | 4.7 | 3.6 |  |  |  |  |  |  | 
10 | CNC(=O)CN1CCC(c2ccc3[nH]c(-c4cc(C)c(=O)n(C)c4)c(C(C)C)c3n2)CC1 [Example 530] |  |  |  |  |  |  | 4760 | 8.8 | 7.1 | 
11 | COc1cc(-c2[nH]c3ccc(C4CCN(CC(=O)N(C)C)CC4)nc3c2C(C)C)cn2ncnc12 [Example 537] |  |  |  |  |  |  | 2850 | 7.1 | 2.1 | 
12 | COc1cc(-c2[nH]c3cc(C)c(C4CCC(N5CC(F)(F)C5)CC4)nc3c2C(C)C)cn2ncnc12 (stereo not drawn) [Example 337] |  |  |  | > 50000 | 350 | 21 |  |  |  | 
13 | COc1cc(-c2[nH]c3cc(C)c(C4CCC(NC5CCOC5)CC4)nc3c2C(C)C)cn2ncnc12 (stereo not drawn) [Example 329] |  |  |  | 2070 | 23 | 1.6 |  |  |  | 
14 | Cc1c(-c2[nH]c3ccc(C4CCC(N(C)CCC#N)CC4)nc3c2C(C)C)cn2ncnc2c1C (stereo not drawn) [Example 366] |  |  |  | 4690 | 15 | 5.3 |  |  |  | 
15 | Cc1c(-c2[nH]c3ccc(N4CC5(C4)CN(C4CCOCC4)C5)nc3c2C(C)C)cn2ncnc2c1C [Example 1012] | 1690 | 1.4 | 0.59 |  |  |  |  |  |  | 
16 | COc1cc(-c2[nH]c3cc(C)c(C(=O)N(C)CCC(F)(F)F)nc3c2C(C)C)cn2ncnc12 [Example 734] |  |  |  |  |  |  | > 50000 | 252 | 26 | 
17 | Cc1c(-c2[nH]c3ccc(N4CCC(N(C)C5CCC5)CC4)nc3c2C(C)C)cn2ncnc2c1C [Example 59] |  |  |  | 2380 | 1.1 | 1.3 |  |  |  | 
18 | COc1cc(-c2[nH]c3ccc(C4CCC(N)C4)nc3c2C(C)C)cn2ncnc12 (racemic) [Example 9, 3-(3-isopropyl-2-(8-methoxy-[1,2,4]triazolo[1,5-a]pyridin-6-yl)-1H-pyrrolo[3,2-b]pyridin-5-yl)cyclopentan-1-amine] |  |  |  |  |  | 1.7 |  |  |  | IC50 ([1]; TLR9 IC50, HEK-Blue cells overexpressing human TLR9, ODN2006 5 nM stimulation, SEAP reporter): 2250 nM; IC50 ([2]; TLR8 IC50, HEK-Blue cells overexpressing human TLR8, R848 15.9 μM stimulation, SEAP reporter): 8.2 nM
19 | Cc1c(-c2[nH]c3ccc(C4CCC(N(CC#N)CCS(C)(=O)=O)CC4)nc3c2C(C)C)cn2ncnc2c1C (stereo not drawn) [Example 457] |  |  |  |  |  |  | 622 | 0.3 | 0.32 | 
20 | Cc1c(-c2[nH]c3ccc(N4C[C@@H](C)N(CCCS(C)(=O)=O)[C@@H](C)C4)nc3c2C(C)C)cn2ncnc2c1C [Example 868] | > 50000 | 6.1 | 12 |  |  |  |  |  |  | 

Row | Structure (SMILES) | IC50 [1, 4] [nM] | IC50 [2, 5] [nM] | IC50 [3, 6] [nM] | IC50 [1, 7] [nM] | IC50 [2, 8] [nM] | IC50 [3, 9] [nM] | IC50 [1, 10] [nM] | IC50 [2, 11] [nM] | IC50 [3, 12] [nM] | further results
21 | COc1cc(-c2[nH]c3ccc(C4CCC(N(C)CCO)CC4)nc3c2C(C)C)cn2ncnc12 (stereo not drawn) [Example 169] |  |  |  | 1220 | 21 | 3.1 |  |  |  | 
22 | Cc1c(-c2[nH]c3ccc(N4CC(N(C)C5CCOCC5)C4)nc3c2C(C)C)cn2ncnc2c1C [Example 24] |  |  |  | 14000 | 2.7 | 40 |  |  |  | 
23 | CC(C)c1c(-c2cn(CCS(C)(=O)=O)c3ncccc23)[nH]c2ccc(C3CCC(NCC4(S(C)(=O)=O)CC4)CC3)nc12 (stereo not drawn) [Example 262] |  |  |  | 354 | 19 | 170 |  |  |  | 
24 | Cc1c(-c2[nH]c3ccc(N4CC(NC(C)C)C4)nc3c2C(C)C)cn2ncnc2c1C [Example 999] | 10500 | 2.1 | 7.5 |  |  |  |  |  |  | 
25 | COc1cc(-c2[nH]c3ccc(N4CC5(C4)CN(C(C)C)C5)nc3c2C(C)C)cn2ncnc12 [Example 1020] | 3860 | 17 | 1.8 |  |  |  |  |  |  | 
26 | Cc1c(-c2[nH]c3ccc(N4CC5(CCNCC5)C4)nc3c2C(C)C)cn2ncnc2c1C [Example 43] |  |  |  | 560 | 7.8 | 2 |  |  |  | 
27 | COc1cc(-c2[nH]c3ccc(C4CCC(N5CCC6(COC6)C5)CC4)nc3c2C(C)C)cn2ncnc12 (stereo not drawn) [Example 1073] | 5830 | 28 | 4.6 |  |  |  |  |  |  | 
28 | CCn1cc(-c2[nH]c3ccc(C4CCC(O)CC4)nc3c2C(C)C)c2cccnc21 (stereo not drawn) [Example 293] |  |  |  | 5640 | 208 | 75 |  |  |  | 
29 | Cc1c(-c2[nH]c3ccc(C4CCC(NCCS(N)(=O)=O)CC4)nc3c2C(C)C)cn2ncnc2c1C (stereo not drawn) [Example 447] |  |  |  |  |  |  | 1640 | 2.3 | 1.7 | 
30 | CNC(=O)CN(C1CCC(c2ccc3[nH]c(-c4cn5ncnc5c(C)c4C)c(C(C)C)c3n2)CC1)C1COC1 (stereo not drawn) [Example 449] |  |  |  |  |  |  | 18000 | 165 | 323 | 
31 | Cc1c(-c2[nH]c3ccc(C4CCC(NCC(C)(C)S(C)(=O)=O)CC4)nc3c2C(C)C)cn2ncnc2c1C (stereo not drawn) [Example 455] |  |  |  |  |  |  | 9200 | 12 | 14 | 
32 | Cc1cc(-c2[nH]c3ccc(C4CCNCC4)nc3c2C(C)C)cc(C)n1 [Example 512] |  |  |  |  |  |  | 304 | 5.6 | 1.1 | 
33 | Cc1c(-c2[nH]c3ccc(N4CC5(CN(CC(C)C)C5)C4)nc3c2C(C)C)cn2ncnc2c1C [Example 1009] | 2660 | 7.7 | 4.5 |  |  |  |  |  |  | 
34 | Cc1c(-c2[nH]c3ccc(C4CCC(NC5(CO)COC5)CC4)nc3c2C(C)C)cn2ncnc2c1C (stereo not drawn) [Example 484] |  |  |  |  |  |  | 7070 | 11 | 6.1 | 
35 | Cc1c(-c2[nH]c3ccc(N4C[C@@H](C)N(C(=O)CCN5CCOCC5)C[C@@H]4C)nc3c2C(C)C)cn2ncnc2c1C [Example 907] | > 50000 | 0.45 | 0.76 |  |  |  |  |  |  | 
36 | COc1cc(-c2[nH]c3ccc(C4CCC(NCc5cnco5)CC4)nc3c2C(C)C)cn2ncnc12 (stereo not drawn) [Example 206] |  |  |  | 2390 | 22 | 9.5 |  |  |  | 
37 | Cc1c(-c2[nH]c3ccc(N4C[C@@H](C)N(C(=O)CN(C(C)C)C(C)C)C[C@@H]4C)nc3c2C(C)C)cn2ncnc2c1C [Example 910] | 5400 | 0.86 | 0.68 |  |  |  |  |  |  | 
38 | Cc1c(-c2[nH]c3ccc(C4CCC(NC(C)(C)C(=O)N5CCOCC5)CC4)nc3c2C(C)C)cn2ncnc2c1C (stereo not drawn) [Example 496] |  |  |  |  |  |  | 2620 | 2.1 | 7.5 | 
39 | Cc1cc(-c2[nH]c3cc(F)c(C4CCN(C(=O)CN(C)C)CC4)nc3c2C(C)C)cn2ncnc12 [Example 585] |  |  |  |  |  |  | 1840 | 8.6 | 0.46 | 
